Common to all, as to assay: NCI tumour cell line growth inhibition, 48 h
For test [1], the system named is MDA-N.
Test [2] has as its system MOLT-4.
Test [3] relates to PC-3.
For test [4], the system named is DU-145.
In test [5] the test system is HCT-15.
Test [6] has as its system ACHN.
The subject of test [7] is NCI-H226.
Test [8] relates to MDA-MB-435.
Test [9] concerns UO-31.
Test [10] relates to RXF 393.
Test [11] relates to SF-539.
Test [12] has as its system 786-0.
The subject of test [13] is A498.
Test [14] has as its system MDA-MB-231.
Test [15] deals with EKVX.
Test [16] has as its system Hs-578T.
Test [17] has as its system SF-268.
Test [18] has as its system IGROV-1.
Test [19] has as its system RPMI-8226.

Each structure is given as a SMILES string.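 Cells were grown in 96-well plates and exposed to each compound for 48 hours at five concentrations; endpoints were interpolated linearly between bracketing concentrations, or set to the highest concentration if not reached. GI50 is the concentration that inhibits growth by half.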 Activity calls are given as the source filed them. No stated cut-off is given here; in the data, active = GI50 up to about 1.1 µM and inactive = higher. Some results are limits rather than exact numbers.

As for `Cc1cn([C@H]2C[C@@H](N3C(=O)c4ccccc4C3=O)[C@@H](CO[Si](C)(C)C(C)(C)C)O2)c(=O)[nH]c1=O`, the GI50 in test [1] is > 100 µM (inactive); in test [2] it was 36.9 µM (inactive); in test [3], > 100 µM (inactive); in [4] it was > 100 µM (inactive); in test [5] it was above 100 µM; in test [6] it was 62.7 µM (inactive). The GI50 in test [7] was 57.1 µM (inactive); in [8] it was > 100 µM (inactive); in test [9], 52.5 µM (inactive); in [10], 19.7 µM (inactive); in [11], 27.5 µM (inactive); in test [12], 26.9 µM (inactive). Moreover, the GI50 is > 100 µM (inactive) in test [13]; 70.3 µM (inactive) in test [14]; 75.2 µM (inactive) in [15]; 21.2 µM (inactive) in [16]; 30.6 µM (inactive) in test [17]; 55 µM (inactive) in test [18]. Moreover, in test [19], the GI50 was > 100 µM (inactive).

Consider `O=C(/C=C/c1ccc(O)c(O)c1)OCCc1ccc2ccccc2c1`, for which the GI50 in [1] was 2.38 µM (inactive); in test [2], 2.2 µM (inactive); in test [3], 7.55 µM (inactive); in test [4], 11.9 µM (inactive); in test [5] it was 2.49 µM; in test [6], 2.86 µM (inactive). Besides, the GI50 was 14.8 µM (inactive) in [7]; 2.54 µM (inactive) in [8]; 3.19 µM (inactive) in [9]; 9.46 µM (inactive) in test [10]; 5.83 µM (inactive) in test [11]; 8.59 µM (inactive) in test [12]. Besides, the GI50 in test [13] is 15.2 µM (inactive); in test [14] it was 10.6 µM (inactive); in test [15] it was 14.6 µM (inactive); in test [16], 4.79 µM (inactive); in [17], 10.9 µM (inactive); in test [18], 2.32 µM (inactive).

`O=C(c1cccc(C(=O)c2ccc3c4c(cccc24)C(=O)N(c2ccccc2)C3=O)c1)c1ccc2c3c(cccc13)C(=O)N(c1ccccc1)C2=O`: the GI50 in test [1] is > 100 µM (inactive); in test [2] it was > 100 µM (inactive); in [3], > 100 µM (inactive); in test [4], > 100 µM (inactive); in test [5], above 100 µM; in test [6], > 100 µM (inactive). The GI50 in [7], in test [8], in test [9], in [10], in test [11] and in test [12] was > 100 µM (inactive) each time. Moreover, the GI50 in [13] is 17.3 µM (inactive); in test [14], 67.1 µM (inactive); in [15], 38 µM (inactive); in test [16], 52.8 µM (inactive); in [17], > 100 µM (inactive); in [18] it was 63.7 µM (inactive). Also, the GI50 in test [19] was > 100 µM (inactive).

With `CSc1c(C)[n+]([O-])c2cc(Cl)c(Cl)cc2[n+]1[O-]`, the GI50 in [1] is 16 µM (inactive); in test [2], 2.38 µM (inactive); in [3], 18.6 µM (inactive); in [4], 16.9 µM (inactive); in [5], 17 µM; in test [6], 16.8 µM (inactive). Also, the GI50 in [7] was 13.1 µM (inactive); in test [8], 18.5 µM (inactive); in [9], 16.3 µM (inactive); in test [10], 21.5 µM (inactive); in [11], 44.8 µM (inactive); in test [12], 17.3 µM (inactive). Moreover, the GI50 in test [13] was 21.6 µM (inactive); in test [14], 20.2 µM (inactive); in test [15], 16.3 µM (inactive); in test [16], 24.2 µM (inactive); in test [17] it was 18.5 µM (inactive); in test [18] it was 14 µM (inactive). In test [19], the GI50 was 9.73 µM (inactive).

The values above are taken from ChEMBL document CHEMBL1201862, “PubChem BioAssay data set” (2004).
